Data on twelve molecules can be found in patent publication US4432732A, “Method for predicting properties of a chemical compound” (priority 1982, dated 1984).

Entries after “also recorded” stand apart in the source; their conditions may differ. Where a SMILES comes first, the peptide text is derived from it. [ ]: non-standard residue; d: D form. The star is where a group is joined. ξ: configuration not given here. ξS = NC(CO)C(=O)O; OiPr = CC(C)O*

The conditions of data set [1]: cited from earlier work; for taste in words: bitter or sweet taste; for sweetness, times sweeter than sucrose: taste of sucrose is 1.
A further data set deals with small animals. As to conditions: intravenous dose; cited from earlier work.
A short description of data set [2]: acute toxicity, LD50 (intravenous dose, small animals). Particulars: in vivo, LD50 (mg/kg) divided by molecular weight, multiplied by 100. The procedure: Conventionally, the degree of toxicity of a compound has been known only after actual dose. LD50 data for small animals (intravenous dose) contained in the Merck Index (9th edition) were thoroughly taken to use as a learning set, which amounts to more than 300 compounds. The predictability of this chart was tested with 82 other compounds.
Toxicity scale used for this study. Unit of ordinary LD50 values are mg/kg, where mg is the quantity of substance dosed for 50% lethality and kg is the weight of the test animal.
To standardize this value on the millimore base, the LD50 values is divided by the molecular weight. In FIG. 1, the quantity is further multiplied by 100 to avoid unfamiliarly small digits.

On to `N[C@@H](CC(=O)O)C(=O)N[C@@H](Cc1ccccc1)C(=O)O` [(II)] (H-Asp-Phe-OH), for which, in data set [1], the taste in words result is on record as “bitter taste is observed”. As for `N[C@@H](CC(=O)O)C(=O)N[C@@H](Cc1ccc(O)cc1)C(=O)O` [(III)] (H-Asp-Tyr-OH), the taste in words entry in data set [1] is reported as “bitter taste is observed”. In the case of `CNC(=O)[C@H](Cc1ccc(O)cc1)NC(=O)[C@@H](N)CC(=O)O` [(IV)] (H-Asp-Tyr-NHMe), in data set [1], the taste in words result is listed as “bitter taste is observed”. For `COC(=O)[C@H](Cc1ccccc1)NC(=O)[C@@H](N)CCC(=O)O` [(V)], the taste in words result in data set [1] is reported as “bitter taste is observed”.

Consider `N[C@@H](CCC(=O)O)C(=O)N[C@@H](Cc1ccccc1)C(=O)O` [(VI)], for which the taste in words result in data set [1] is on record as “bitter taste is observed”. As to `CC(C)OC(=O)C(CO)NC(=O)[C@@H](N)CC(=O)O` (stereo partly shown) [(VII)] (H-Asp-[ξS]-OiPr), in data set [1], the taste in words entry is “sweet peptides” and the “sweetness, times sweeter than sucrose” value was roughly 120 times.

`COc1cc(C(=O)OCCCN2CCCN(CCCOC(=O)c3cc(OC)c(OC)c(OC)c3)CC2)cc(OC)c1OC` [Compound II]: the “observed LD50” value with small animals is on record as 26.6 mg/kg. Further, the LD50 in data set [2] stood at 328 µmol/kg. `CC(=O)Nc1c(I)c(NC(C)=O)c(I)c(C(=O)O)c1I` [Compound I]: the “observed LD50” value in the data set on small animals is on record as 14700 mg/kg. Moreover, the LD50 in data set [2] was 22900 µmol/kg. For `COC(=O)[C@H](Cc1ccccc1)NC(=O)[C@@H](N)CC(=O)O` [aspartame, reference compound] (H-Asp-Phe-OMe), in data set [1], the taste in words entry was “strong sweetness; also recorded: lacking bitter taste” and the “sweetness, times sweeter than sucrose” value was “about 150 times”. As for `O=S(=O)(O)NC1CCCCC1` [cyclamic acid, reference compound], in data set [1], the taste in words entry is reported as “lacking bitter taste”. In the case of `O=C1NS(=O)(=O)c2ccccc21` [saccharine, reference compound], the taste in words result in data set [1] is listed as “slight bitterness”. Take `OC[C@H]1O[C@@](CO)(O[C@H]2O[C@H](CO)[C@@H](O)[C@H](O)[C@H]2O)[C@@H](O)[C@@H]1O` [sucrose, reference compound]: in data set [1], the taste in words entry is recorded as “lacking bitter taste”.
